According to article PMC5760531, “Action Potential Recording and Pro-arrhythmia Risk Analysis in Human Ventricular Trabeculae” (Frontiers in Physiology, 2018):
Where “and” joins values, the source holds several entries; their conditions need not be identical. Equal entries are not always repeated.

Key:
[1] = human free (unbound) effective therapeutic plasma concentration used to calculate multiples; cited from earlier work
[2] = tested on: human ventricular trabeculae; experiment: Action potential recording and pro-arrhythmic score analysis in human ventricular trabeculae (hVT); conditions: for Beat Escape incidence / EADs incidence / Refractoriness Escape incidence: c1-c4: 25-;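 for all read-outs here: sharp microelectrode action potential recordings at 37°C in Tyrode-perfused trabeculae, 4 cumulative concentrations each applied 31 min, values averaged over last 30 APs, vehicle 0.1% DMSO as control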
[3] = 1Hz, 75-, 250-, 2500-FOLD free ETPC (0.0004µM)
[4] = 2Hz, 75-, 250-, 2500-FOLD free ETPC (0.0004µM)
[5] = average raw data, 1Hz, c2-c5: 25-, 75-, 250-, 2500-FOLD free ETPC (0.0004µM)
[6] = average raw data, 2Hz, c2-c5: 25-, 75-, 250-, 2500-FOLD free ETPC (0.0004µM)

## Cc1ccc(O)c([C@H](CCN(C(C)C)C(C)C)c2ccccc2)c1 [TOLTERODINE, Tolterodine]
[1]
  Free ETPC: 0.0004 µM
[2]; [3]
  Beat Escape incidence: 0%
  EADs incidence: 0%
  Refractoriness Escape incidence: 0%
[2]; [4]
  Beat Escape incidence: 0%
  EADs incidence: 0%
  Refractoriness Escape incidence: 0%
[2]; any testing concentration, 1 and 2 Hz
  EAD induction: did not induce EAD
[2]; [5]
  AMAX: 110 mV and 113 mV and 107 mV and 112 mV
  APD30: 186 ms and 190 ms and 192 ms and 195 ms
  APD50: 248 ms and 256 ms and 279 ms and 294 ms
  APD90: 320 ms and 331 ms and 378 ms and 411 ms
  Alternans: 0.39 and 0.41 and 0.53 and 0.63
  Beat Escape: 0
  EADs: 0
  ERP: 0.46 and 0.47 and 0.53 and 0.55
  Max Dispersion: 2.33 and 1.97 and 2.80 and 2.90
  Refractoriness Escape: 0
  STV: 0.32 and 0.28 and 0.38 and 0.40
  Triangulation: 134 and 141 and 186 and 215
[2]; [6]
  AMAX: 107 mV and 113 mV and 106 mV
  APD30: 131 ms and 143 ms and 136 ms and 134 ms
  APD50: 184 ms and 197 ms and 203 ms and 210 ms
  APD90: 254 ms and 268 ms and 299 ms and 327 ms
  Beat Escape: 0
  EADs: 0
  ERP: 0.49 and 0.48 and 0.54 and 0.56
  Max Dispersion: 2.38 and 2.93 and 4.08 and 4.05
  Refractoriness Escape: 0
  Triangulation: 123 and 126 and 163 and 193
[2]; up to the highest testing concentration, 1 μM
  effect on amplitude of AP: negligible effects
